Legend:
A431 tumors [1] = experiment: In vivo test of Conjugate IX, A431 tumors in nude mice; conditions: 2 mg/kg daunomycin every 3 days over 9 days, caudal vein
Text: The in vivo tests reported in Example 8 were repeated using Conjugate IX.

[2] = system: A431 squamous carcinoma cells; experiment: Internalization of 125I-labelled EGF and Conjugate VIII in A431 cells; type: cell-based, human; conditions: A431, 6 hrs at 37° C.
Description: (§1) The Conjugate VIII, radiolabeled with ^125 I on the EGF, was incubated with confluent cell cultures of A431 and WI38 cells for 6 hrs at 37° C. in solution A (4 parts DMEM and 1 part of 50 mM Tris, 100 mM NaCl and 0.1 percent BSA adjusted to pH 7.4). The cells were then washed four times with ice-cold PBS+1 mM CaCl2 and 1 mM MgCl2. Fifty percent trichloroacetic acid was added in a proportion of 1:5 to the pooled solution A and PBS, and the mixture was counted on a gamma counter. The cell membrane was destablized by treatment on ice with 200 mM acetic acid and 150 mM NaCl (solution B) for 6 minutes. The solution B was then removed and the cells washed twice with solution B. These pooled B solutions were assayed for ^125 I. This treatment releases the […] to the cell surface. The cells were then completely dissolved in 0.2 N NaOH. The radioactivity found there represented the internalized Conjugate VIII. In control experiments, using free EGF ^125 I, a proportion of the EGF is recycled to the medium, therefore lowering the intracellular EGF. The results on the internalization of ^125 I labelled EGF and Conjugate VIII in WI38 and A431 cell cultures are given in the following Table in terms of counts per min (background 30 cpm) for successively: EGF not integrated in the cell, EGF bound to the membrane, and EGF in the intra-cellular compartment. The percent of total cpm is given in brackets.

WI38 fibroblasts = experiment: Internalization of 125I-labelled EGF and Conjugate VIII in WI38 cells; type: cell-based; conditions: WI38, 6 hrs at 37° C.
Description: as §1

A431 tumors [3] = experiment: In vivo test of Conjugate VIII, A431 tumors in nude mice; conditions: for Initial Surface of the Tumor (A): before treatment; for Final Surface of the tumor (B): a week after last injection; for Tumor weight: tumors dissected at end of experiment
Description: In the prior art, up to 10 mg/kg doses have been used in mice (S. Schwarz, et al., 1975, Cancer Chem. Rep., 6, 2, 107-114). The drug was injected either directly in the tumor or in the caudal vein 4 times at 3 days intervals. The measures were taken a week after the last injection.

[4] = system: mixed culture of A431 and WI38 cells; experiment: Effect on mixed cultures of tumor (A431) and normal (WI38) cells; type: cell-based; conditions: 0.1 μg/ml (or equivalent free daunomycin), after 15 days
Description: Cells were maintained as described in Example 4. The WI38 fibroblasts were first plated and the A431 squamous carcinoma cells were plated the next day. […]

A431 malignant cells = experiment: Inhibition of cellular protein synthesis (35S methionine incorporation), A431; type: cell-based; conditions: Homo sapiens, A-431, 48 h, read-out: % of protein Synthesis Inhibition
Description: (§2) The effect of these drugs was evaluated by the degree of inhibition of cellular protein synthesis. For this, we measured the level of incorporation of 35S methionine NEN) into newly synthesized proteins after a 48 hrs exposure to different concentrations of the drugs.
(§3) Cells were plated on 1.5 cm Petri dishes at 50 percent to 60 percent of confluence before the addition of the toxin. […] Cell death consecutive to this addition was measured as follows: the cells were exposed for 1 hour at 37° C. in 500 μl DMEM low methionine medium (GIBCO) containing radioactive ^35 S met. The medium was then removed and the dishes were washed with PBS 9137 mM NaCl, […], […], 8.1 mM Na2 HPO4, 1.5 mM KH2 PO4, 0.9 mM CaCl2, 0.5 mM MgCl2, pH 7.2). These solutions were stored for beta counting. The cells were lysed with 1 ml 0.1 N NaOH and placed in a tube with 500 μl Trichloroacetic acid (TCA) 10 percent to precipitate the proteins. This mixture was filtered on GF/A filters (Whatman) to eliminate unreacted ^35 S-met. The filters were washed twice with 1 ml of 10 percent TCA and once with 100 percent ethanol. The filters were dried at 80° C. for 2 hours and subjected to beta counting in Econofluor (NEN) scintillation medium.

[5] = system: A431 squamous carcinoma cells; experiment: Comparative cytotoxic effects of free and conjugated daunomycin, Trypan Blue exclusion; type: cell-based, human; conditions: A431, 1 μg/ml daunomycin or equivalent in conjugate, 48 hours
Description: All cells were maintained in Dulbecco's Modified Medium (DMEM), 10 percent foetal calf serum (FSC) (GIBCO), 2 percent penicillin-streptomycin (Gibco) and 1 percent fungizone (GIBCO) in 5 percent CO2. They were plated at 50 to 60 percent confluence 24 hours before the addition of the toxin. […] Four volumes of 0.2 percent (w/v) Trypan Blue in water was freshly mixed with 1 volume of a saline solution 4.25 percent (w/v) of NaCl in water. One volume of this solution was mixed with 1 volume of PBS on the cell monolayer or to 1 volume of cell suspension in PBS. Observation and scoring took place 48 hours after addition of the toxin (see FIG. 2a and 2b).

WI38 (control) cells = experiment: Inhibition of cellular protein synthesis (35S methionine incorporation), WI38; type: cell-based; conditions: Homo sapiens, WI-38, 48 h
Description: as §2, §3

[6] = I.T., 0.1 mg/kg daunomycin 4 times at 3 days intervals

Compound “EGF: Epidermal Growth Factor, a single polypeptide of 53 amino acids (SIGMA)” has a Tumor diameter (A431 tumors [1]; day 0) of 10 mm, a Tumor diameter (A431 tumors [1]; day 4) of 13 mm and a Tumor diameter (A431 tumors [1]; day 7) of 14 mm. For the same compound, the Tumor diameter (A431 tumors [1]; day 11) was 17 mm, the Tumor diameter (A431 tumors [1]; day 14) was 17 mm and the “Intracellular, percent of total cpm” value [2] was 14%. For the same compound, the “Membrane, percent of total cpm” value [2] was 0%, the “Unbound, percent of total cpm” value [2] was 86% and the Intracellular ([2]; background 30 cpm) was 111 cpm. For the same compound, the Membrane ([2]; background 30 cpm) was 31 cpm, the “Unbound (EGF not integrated in the cell)” value ([2]; background 30 cpm) was 536 cpm and the “Intracellular, percent of total cpm” value (WI38 fibroblasts) was 7%. The “Membrane bound, percent of total cpm” value (WI38 fibroblasts) was 0%, the “Unbound, percent of total cpm” value (WI38 fibroblasts) was 93% and the Intracellular (WI38 fibroblasts; background 30 cpm) was 67 cpm. For the same compound, the Membrane bound (WI38 fibroblasts; background 30 cpm) was 29 cpm and the “Unbound (EGF not integrated in the cell)” value (WI38 fibroblasts; background 30 cpm) was 530 cpm.

For `COc1cccc2c1C(=O)c1c(O)c3c(c(O)c1C2=O)C[C@@](O)(C(C)=O)C[C@@H]3O[C@H]1C[C@H](N)[C@H](O)[C@H](C)O1` [Daunomycin, daunomycin], the “Initial Surface of the Tumor (A)” value (A431 tumors [3]; I.T. (intratumor)) was 9, the “Growth coefficient (B/A)” value (A431 tumors [3]; [6]) was 18.7 and the “Final Surface of the tumor (B)” value (A431 tumors [3]; [6]) was 170. For the same compound, the Tumor weight (A431 tumors [3]; I.T.) was 1.178 g, the “Initial Surface of the Tumor (A)” value (A431 tumors [3]; I.V. (caudal vein)) was 30.5 and the “Final Surface of the tumor (B)” value (A431 tumors [3]; I.V., 0.1 mg/kg daunomycin 4 times at 3 days intervals) was 500. For the same compound, the Tumor weight (A431 tumors [3]; I.V.) was 6.789 g, the “Cells remaining in mixed culture” value [4] was “all cells, malignant and normal, had died after 15 days” and the inhibition at 0.1 µg/mL (A431 malignant cells) was 30%. The inhibition at 0.5 µg/mL (A431 malignant cells) was 68%, the inhibition at 1 µg/mL (A431 malignant cells) was 97% and the “Cell death by Trypan Blue exclusion” value [5] was “Exclusion of the dye from the cells demonstrates the viability thereof”. For the same compound, the Tumor diameter (A431 tumors [1]; day 0) was 10 mm, the Tumor diameter (A431 tumors [1]; day 4) was 12 mm and the Tumor diameter (A431 tumors [1]; day 7) was 15 mm. It also gave a Tumor diameter (A431 tumors [1]; day 11) of 20 mm, a Tumor diameter (A431 tumors [1]; day 14) of 21 mm and an inhibition at 0.1 µg/mL (WI38 (control) cells) of 10%. It also gave an inhibition at 0.5 µg/mL (WI38 (control) cells) of 46% and an inhibition at 1 µg/mL (WI38 (control) cells) of 80%.
